Each block holds one compound with its values, some of them ahead of it.
Key:
[1] = Vorinostat, VG and VA serum pharmacokinetics; type: in vivo, human; conditions: for Change in Tmax, Cmax, and AUC0-8h: DSI schedule, day 1 or day 4, alvocidib escalated over 10–40 mg/m^2
[2] = cited from earlier work
[3] = tested on: patients with relapsed, refractory, or poor prognosis acute leukemia, or RAEB-2; test: Phase I 3+3 dose escalation: DLT and MTD of alvocidib combined with vorinostat; type: in vivo, human
[4] = Alvocidib plasma pharmacokinetics; type: in vivo, human; conditions: for Overall mean CL of alvocidib: initial dose, geometric mean ± SD
solid tumor patients = conditions: cited from earlier work
[5] = days 2 and 16, 28-day cycles, with vorinostat 800 mg
[6] = vorinostat 200 mg orally with alvocidib

Change in Tmax, Cmax, and AUC0-8h [1]: no change
Structure (SMILES): O=C(O)CCC(=O)Nc1ccccc1 [VA, 4-anilino-4-oxobutanoic acid]

Change in Tmax, Cmax, and AUC0-8h [1]: no change
AUC lower with 60 mg/m^2 compared to 40 mg/m^2 alvocidib dose ([1]; WLMI schedule): 50%
Cmax lower with 60 mg/m^2 compared to 40 mg/m^2 alvocidib dose ([1]; WLMI schedule): 50%
Structure (SMILES): O=C(CCCCCCC(=O)Nc1ccccc1)NO[C@@H]1O[C@H](C(=O)O)[C@@H](O)[C@H](O)[C@H]1O [VG, vorinostat glucuronide]

Structure (SMILES): CN1CC[C@H](c2c(O)cc(O)c3c(=O)cc(-c4ccccc4Cl)oc23)[C@H](O)C1 [alvocidib, flavopiridol]
Binding to plasma proteins [2]: highly bound
MTD, alvocidib maintenance infusion ([3]; 4-h maintenance infusion, days 1 and 8 of 21-day cycle (WLMI), with vorinostat 200 mg orally TID days 1–14): 20 mg/m^2
MTD, alvocidib loading infusion ([3]; 30-min loading infusion, days 1 and 8 of 21-day cycle (WLMI), with vorinostat 200 mg orally TID days 1–14): 20 mg/m^2
Plasma concentration immediately before dosing on days 4 or 8 (accumulation) ([4]; daily and weekly infusion schedules, on average): < 1 % of the subsequent Cmax
Mean CL of alvocidib ([4]; day 4 dose, DSI schedule, after vorinostat 200 mg TID for 3 days): 9.9 ± 5.4 L/h/m^2
Mean CL of alvocidib ([4]; day 8 dose, WLMI schedule, after vorinostat 200 mg TID for 7 days): 11.0 ± 3.9 L/h/m^2
Overall mean CL of alvocidib ([4]; DSI schedule): 13.0 ± 4.8 L/h/m^2
Overall mean CL of alvocidib ([4]; WLMI schedule): 12.2 ± 5.3 L/h/m^2
MTD, alvocidib given over 4 h (solid tumor patients; [5]): 30 mg/m^2
MTD, alvocidib initial 30 min infusion (solid tumor patients; [5]): 30 mg/m^2

Structure (SMILES): O=C(CCCCCCC(=O)Nc1ccccc1)NO [vorinostat, Vorinostat]
MTD for this regimen, vorinostat ([3]; TID, with alvocidib WLMI 20/20 mg/m^2): 200 mg
Change in Tmax, Cmax, and AUC0-8h [1]: no change
Vorinostat AUC higher, WLMI compared to DSI schedule [1, 6]: 25–50%
Vorinostat Cmax higher, WLMI compared to DSI schedule [1, 6]: 25–50%
MTD, vorinostat (solid tumor patients; days 1–3 and 15–17, 28-day cycles, with alvocidib WLMI): 800 mg
